Source: patent US6534676B2, “Method to treat chronic heart failure and/or elevated cholesterol levels using 3,5-diiodothyropropionic acid and method to prepare same” (The Arizona Board of Regents on Behalf of the University of …, priority 2001, dated 2003)

Legend:
[1] = Dose-ranging study of DITPA in normal volunteers: thyroid hormone measurements; format: in vivo, human; details: for Thyrotropin: baseline 3.53 ± 1.00; for Thyrotropin / Free T4 / Total T4 / rT3: mean ± SEM; for Free T4: baseline 1.04 ± .04; for Total T4: baseline 8.73 ± .85; for rT3: baseline 23.23 ± 1.71
Description: A dose-ranging study was performed with seven (7) normal volunteers. Study participants comprised men between the ages of 18 and 65 years of age. Before participating in the study, a complete physical examination, electrocardiogram, and echocardiogram were obtained. […] On day 1, these normal volunteers were started on 1.875 mg/kg in two divided doses per day. This treatment regimen was continued for two weeks. At the end of the second week, the initial laboratory studies were repeated. The dose was then doubled to 3.75 mg/kg and the volunteers were treated for two additional weeks. At the end of this time physical examination and all laboratory variables again were measured. Volunteer data were analyzed using Student's paired t-test. Baseline data in DITPA and placebo groups were compared by Student's unpaired t-test. Comparison of placebo and drug treated groups was made by repeated measures ANOVA (SPSS Version 9.5, SPSS Chicago, 11). If P values for drug-time interactions were significant a priori contrasts were performed of the drug-time interaction for two weeks versus baseline. When data were available only at baseline and four week, comparisons were made by difference scores. Baseline values for each participant were subtracted from values after four weeks of treatment and the differences between DITPA and placebo treatments then were compared. […] Table II summarizes thyroid hormone measurements after two and four weeks of treatment with DITPA in normal volunteers.

[2] = tested on: nuclear T3 receptors of the c-erbA proto-oncogene family; details: background statement; cited from earlier work
[3] = post-infarction models, alone or with an angiotensin I-converting enzyme inhibitor; cited from earlier work
[4] = Heart failure patients: serum lipid levels; format: in vivo, human; details: for LDL-cholesterol: text baseline 107.3±42.8 mg/dL; for HDL Cholesterol / Triglyceride: serum; for HDL Cholesterol: baseline 32.8 ± 2.8; for Triglyceride: baseline 248.7 ± 40.4
Description: DITPA cross-reacted with antibodies for detection of T3, which consequently was not measured. Renal and hepatic function tests also were performed. Patients were randomly assigned in double-blind fashion to receive either DITPA at a dosage of 1.875 mg/kg daily or placebo in two or three divided doses. For the first four days of drug administration patients were monitored on a telemetry unit. Thereafter, weekly electrocardiograms were performed and patients were examined for changes in thyroid or cardiac status or evidence of drug toxicity. At the end of two weeks an echocardiogram was obtained. If there was no clinical evidence of progression of heart failure or development of an arrhythmia the dose of DITPA was increased to 3.75 mg/kg daily. After an additional two weeks of treatment with the higher dosage of the drug patients were readmitted to the hospital and the tests performed in the initial evaluation were repeated. Right heart catheterization was performed after the patient had been fasted overnight; no premedication was given. Pulmonary artery, pulmonary capillary wedge and right heart pressures were measured with a 7 Fr Swan-Ganz catheter introduced into the right femoral vein. Blood pressures were recorded with an automated arm cuff system. After an initial stabilization period of 20 to 30 minutes, the resting hemodynamic measurements were obtained. Thermodilution cardiac output measurements were averaged from five recordings after discarding the highest and lowest values. All blood tests were performed in the Clinical Pathology Laboratory at the Southern Arizona Veterans Administration Health Care System.

[5] = normal volunteers, after 2 weeks (1.875 mg/kg/day)
[6] = normal volunteers, after 4 weeks (3.75 mg/kg/day)
[7] = heart failure patients, after four weeks
[8] = heart failure patients, after two weeks
[9] = after 2 weeks (1.875 mg/kg daily)
[10] = after 4 weeks (3.75 mg/kg daily)

O=C(O)CCc1cc(I)c(Oc2ccc(O)cc2)c(I)c1 [DITPA, 3,5-Diiodothyropropionic acid]
Thyrotropin ([1]; normal volunteers n=7, after 2 weeks (1.875 mg/kg/day)): 0.69 ± .38 mu/L | Thyrotropin ([1]; normal volunteers n=7, after 4 weeks (3.75 mg/kg/day)): 0.44 ± .29 mu/L | Free T4 [1, 5]: 0.95 ± .07 ng/dL | Total T4 [1, 5]: 5.76 ± .39 µg/dL | rT3 [1, 5]: 47.41 ± 7.11 ng/dL | Free T4 [1, 6]: 1.05 ± .06 ng/dL | Total T4 [1, 6]: 5.89 ± .44 µg/dL | rT3 [1, 6]: 69.56 ± 9.93 ng/dL | average values for thyrotropin ([1]; normal volunteers, after two additional weeks at 3.75 mg/kg, normal range 0.48 to 4.0 μU/ml): 0.44±0.29 μU/ml | binding to nuclear T3 receptors [2]: binds | left ventricular (LV) performance [3]: improve left ventricular (LV) performance | cholesterol ([4]; heart failure patients n=9, serum, after 2 weeks (1.875 mg/kg daily), baseline 198.9 ± 19.7): 160.6 ± 14.3^++ ng/dL | LDL-cholesterol ([4]; heart failure patients, after 4 weeks): 80.5 ± 13.7 mg/dL | decrease in LDL-cholesterol [4, 7]: 25% | decrease in cholesterol [4, 7]: 24% | decrease in serum triglycerides ([4]; heart failure patients, after four weeks, P=0.005): 35% | cholesterol ([4]; heart failure patients, after four weeks, text baseline 185.8±46.9 mg/dL, P=0.013): 140.7 ± 16.2 mg/dL | average decrease in LDL-cholesterol [4, 8]: 17% | average decrease in cholesterol [4, 8]: 14% | decrease in serum triglycerides ([4]; heart failure patients, after two weeks, P<0.05): 11% | cholesterol ([4]; heart failure patients, after two weeks, text baseline 185.8±46.9 mg/dL, P<0.05): 160.6 ± 14.3 mg/dL | LDL-cholesterol ([4]; heart failure patients, at two weeks): 89.4 ± 12.7 mg/dL | HDL Cholesterol [4, 9]: 30.6 ± 2.0 mg/dL | Triglyceride [4, 9]: 203.0 ± 30.4^++ mg/dL | HDL Cholesterol [4, 10]: 31.4 ± 3.1 mg/dL | Triglyceride [4, 10]: 143.7 ± 21.1 mg/dL | patients in whom LDL-cholesterol decreased ([4]; treated for 4 weeks): 8 of 9
